In ChEMBL document CHEMBL1759988, “Isatin-β-thiosemicarbazones as potent herpes simplex virus inhibitors” (Bioorg Med Chem Lett, 2011) one finds IC50 and CC50 data, which are given here for 38 compounds.

The subject of one series is Human alphaherpesvirus 2. Put plainly: Antiviral activity against HSV2 by plaque reduction assay. Type of series: functional, organism-based.
The subject of another series is Human alphaherpesvirus 1. Put plainly: Antiviral activity against HSV1 by plaque reduction assay. It is filed as functional, organism-based.
A short description of series [1]: Cytotoxicity against human RD cells. It is filed as cell-based.

SMILES strings stand for the structures.

Regarding `CN(C)C(=S)N/N=C1/C(=O)Nc2ccccc21`, the IC50 with Human alphaherpesvirus 2 and in the series with Human alphaherpesvirus 1 was above 25 µM in each case. In series [1], this compound yielded a CC50 above 25 µM.

`O=C1Nc2ccccc2/C1=N/NC(=S)Nc1cccc(Cl)c1`: the 50% inhibitory concentration (IC50) in the series on Human alphaherpesvirus 2 and in the series on Human alphaherpesvirus 1 was above 25 µM throughout. The compound further came in with a CC50 in series [1] above 25 µM.

For `CCCNC(=S)N/N=C1\C(=O)Nc2ccccc21`, the IC50 with Human alphaherpesvirus 2 and in the series with Human alphaherpesvirus 1 was above 25 µM throughout. Besides, the CC50 in series [1] was above 25 µM.

Regarding `O=C1Nc2ccccc2/C1=N/NC(=S)N1CCOCC1`, the values for the IC50 in the series with Human alphaherpesvirus 2 and with Human alphaherpesvirus 1 were 2.74 µM and 1.3 µM, respectively. The compound also came in with a cytotoxic concentration (CC50) in series [1] above 25 µM.

For the compound `Cc1ccc2c(c1)/C(=N/NC(=S)Nc1ccccc1)C(=O)N2`, the IC50 in the series on Human alphaherpesvirus 2 and with Human alphaherpesvirus 1 was above 25 µM each time. The compound also showed a CC50 in series [1] above 25 µM.

Consider `CCN(CC)C(=S)N/N=C1\C(=O)Nc2ccccc21`, for which the IC50 was 1.54 µM in the series on Human alphaherpesvirus 2 and above 25 µM in the series with Human alphaherpesvirus 1. The compound further had a CC50 in series [1] above 25 µM.

`O=C1Nc2ccc(F)cc2/C1=N/NC(=S)Nc1ccccc1`: the IC50 in the series on Human alphaherpesvirus 2 and in the series on Human alphaherpesvirus 1 was above 25 µM throughout. For the same compound, the CC50 in series [1] is above 25 µM.

For the compound `Cc1cccc(NC(=O)N/N=C2\C(=O)Nc3ccccc32)c1`, the IC50 in the series on Human alphaherpesvirus 2 and with Human alphaherpesvirus 1 was above 25 µM in each case. In series [1], this compound yielded a CC50 above 25 µM.

As for `COc1ccc(NC(=S)NNC2=c3ccccc3=NC2=O)cc1`, the IC50 is above 25 µM in the series on Human alphaherpesvirus 2 and 2.2 µM in the series with Human alphaherpesvirus 1. Further, the CC50 in series [1] is above 25 µM.

With `Cc1ccc(NC(=O)N/N=C2\C(=O)Nc3ccccc32)cc1`, the IC50 in the series with Human alphaherpesvirus 2 and in the series with Human alphaherpesvirus 1 was above 25 µM throughout. In series [1], this compound showed a CC50 above 25 µM.

For `COc1ccc2c(c1)/C(=N/NC(=S)Nc1ccccc1)C(=O)N2`, the half-inhibitory concentration (IC50) with Human alphaherpesvirus 2 is above 25 µM; in the series with Human alphaherpesvirus 1, 5.01 µM. The compound also yielded a half-maximal cytotoxic concentration (CC50) in series [1] above 25 µM.

As to `O=C1Nc2ccc(Br)cc2/C1=N/NC(=S)Nc1ccccc1`, the IC50 in the series on Human alphaherpesvirus 2 and in the series with Human alphaherpesvirus 1 was above 25 µM in each case. Further, in series [1], the CC50 is above 25 µM.

For the compound `O=C1Nc2ccc(OC(F)(F)F)cc2/C1=N/NC(=S)Nc1ccccc1`, the IC50 in the series on Human alphaherpesvirus 2 was above 25 µM; in the series on Human alphaherpesvirus 1 it was 5.9 µM. The CC50 in series [1] was above 25 µM.

`CCNC(=S)N/N=C1\C(=O)Nc2ccccc21`: the IC50 in the series with Human alphaherpesvirus 2 and in the series on Human alphaherpesvirus 1 was above 25 µM each time. The CC50 in series [1] is above 25 µM.

As to `O=C1Nc2ccccc2/C1=N/NC(=S)Nc1ccc(-n2cccn2)cc1`, the IC50 is above 25 µM with Human alphaherpesvirus 2 and 6.21 µM with Human alphaherpesvirus 1. The compound also showed a CC50 in series [1] above 25 µM.

As to `COc1cccc(NC(=O)N/N=C2\C(=O)Nc3ccccc32)c1`, the IC50 in the series with Human alphaherpesvirus 2 and in the series on Human alphaherpesvirus 1 was above 25 µM throughout. Also, the CC50 in series [1] is above 25 µM.

For the compound `O=C1Nc2ccccc2/C1=N/NC(=S)Nc1ccccc1Cl`, the 50% inhibitory concentration (IC50) in the series on Human alphaherpesvirus 2 and with Human alphaherpesvirus 1 was above 25 µM throughout. Besides, the 50% cytotoxic concentration (CC50) in series [1] was above 25 µM.

Regarding `CCN1C(=O)/C(=N\NC(=S)Nc2ccccc2)c2ccccc21`, the IC50 with Human alphaherpesvirus 2 and in the series on Human alphaherpesvirus 1 was above 25 µM throughout. Also, the CC50 in series [1] is above 25 µM.

Regarding `CNC(=S)N/N=C1\C(=O)Nc2ccccc21`, the IC50 in the series with Human alphaherpesvirus 2 and with Human alphaherpesvirus 1 was above 25 µM in each case. In series [1], this compound gave a CC50 above 25 µM.

Take `O=C1Nc2ccccc2/C1=N/NC(=S)Nc1ccc(Cl)cc1`: the IC50 with Human alphaherpesvirus 2 is above 25 µM; in the series on Human alphaherpesvirus 1 it was 2.69 µM. The compound also yielded a half-maximal cytotoxic concentration (CC50) in series [1] above 25 µM.

On to `O=C1Nc2ccccc2/C1=N/NC(=S)Nc1ccc(N2CCOCC2)cc1`, for which the 50% inhibitory concentration (IC50) with Human alphaherpesvirus 2 and in the series on Human alphaherpesvirus 1 was above 25 µM each time. In series [1], this compound came in with a CC50 above 25 µM.

Take `Nc1nc2c(ncn2COCCO)c(=O)[nH]1` [ACYCLOVIR]: the figures for the IC50 in the series with Human alphaherpesvirus 2 and in the series on Human alphaherpesvirus 1 were 1.27 µM and 0.3 µM, respectively. Besides, in series [1], the CC50 was above 25 µM.

For `Cc1ccccc1NC(=S)N/N=C1\C(=O)Nc2ccccc21`, the IC50 in the series with Human alphaherpesvirus 2 and with Human alphaherpesvirus 1 was above 25 µM in each case. In addition, the CC50 in series [1] was above 25 µM.

Consider `O=C1Nc2ccccc2/C1=N/NC(=S)Nc1ccccc1`, for which the figures for the IC50 in the series with Human alphaherpesvirus 2 and in the series on Human alphaherpesvirus 1 were above 25 µM and 2.97 µM, respectively. This compound also gave a CC50 in series [1] above 25 µM.

For `Cc1cccc(NC(=S)NNC2=c3ccccc3=NC2=O)c1`, the half-maximal inhibitory concentration (IC50) is above 25 µM in the series on Human alphaherpesvirus 2 and 3.84 µM in the series with Human alphaherpesvirus 1. The CC50 in series [1] is above 25 µM.

Turning to `O=C1Nc2ccccc2/C1=N/NC(=S)Nc1ccc(Br)cc1`, the values for the IC50 with Human alphaherpesvirus 2 and with Human alphaherpesvirus 1 were above 25 µM and 3.29 µM, respectively. In series [1], this compound came in with a CC50 above 25 µM.

Regarding `O=C(N/N=C1\C(=O)Nc2ccccc21)Nc1ccccc1`, the IC50 in the series with Human alphaherpesvirus 2 and in the series with Human alphaherpesvirus 1 was above 25 µM in each case. The same compound registered a CC50 in series [1] above 25 µM.

On to `COc1cccc(NC(=S)N/N=C2\C(=O)Nc3ccccc32)c1`, for which the IC50 with Human alphaherpesvirus 2 is above 25 µM; in the series on Human alphaherpesvirus 1, 2.64 µM. Moreover, in series [1], the CC50 was above 25 µM.

As for `O=C1Nc2ccccc2/C1=N/NC(=S)Nc1ccc(F)cc1`, the IC50 in the series on Human alphaherpesvirus 2 and in the series with Human alphaherpesvirus 1 was above 25 µM in each case. The compound also gave a CC50 in series [1] above 25 µM.

Take `Cc1ccc(NC(=S)N/N=C2\C(=O)Nc3ccccc32)cc1`: the 50% inhibitory concentration (IC50) in the series with Human alphaherpesvirus 2 and with Human alphaherpesvirus 1 was above 25 µM throughout. In series [1], this compound returned a CC50 above 25 µM.

In the case of `COc1ccccc1NC(=S)N/N=C1\C(=O)Nc2ccccc21`, the IC50 in the series with Human alphaherpesvirus 2 and in the series with Human alphaherpesvirus 1 was above 25 µM throughout. The compound also came in with a CC50 in series [1] above 25 µM.

As to `O=C1Nc2ccc(Cl)cc2/C1=N/NC(=S)Nc1ccccc1`, the IC50 with Human alphaherpesvirus 2 and in the series with Human alphaherpesvirus 1 was above 25 µM throughout. Further, the CC50 in series [1] is above 25 µM.

Regarding `O=C1Nc2ccccc2/C1=N/NC(=S)N1CCCCC1`, the IC50 in the series with Human alphaherpesvirus 2 is 3.14 µM; in the series on Human alphaherpesvirus 1, above 25 µM. Also, the CC50 in series [1] is above 25 µM.

For the compound `CCCN(CCC)C(=S)N/N=C1/C(=O)Nc2ccccc21`, the half-maximal inhibitory concentration (IC50) in the series with Human alphaherpesvirus 2 and in the series with Human alphaherpesvirus 1 was above 25 µM in each case. In series [1], this compound returned a CC50 above 25 µM.

On to `CN1C(=O)/C(=N\NC(=S)Nc2ccccc2)c2ccccc21`, for which the IC50 in the series with Human alphaherpesvirus 2 and with Human alphaherpesvirus 1 was above 25 µM each time. Further, in series [1], the CC50 is above 25 µM.

Turning to `O=C1/C(=N\NC(=S)Nc2ccccc2)c2ccccc2N1Cc1ccccc1`, the IC50 with Human alphaherpesvirus 2 and in the series with Human alphaherpesvirus 1 was above 25 µM each time. This compound had a CC50 in series [1] above 25 µM.

For the compound `O=C1/C(=N\NC(=S)Nc2ccccc2)c2ccccc2N1c1ccccc1`, the IC50 with Human alphaherpesvirus 2 and in the series on Human alphaherpesvirus 1 was above 25 µM each time. For the same compound, the half-maximal cytotoxic concentration (CC50) in series [1] is above 25 µM.

Take `O=C1Nc2ccccc2/C1=N/NC(=S)N1CCCC1`: the IC50 in the series on Human alphaherpesvirus 2 was 5.8 µM; in the series with Human alphaherpesvirus 1, above 25 µM. Besides, the CC50 in series [1] is above 25 µM.
